From US10590086B2, “Pharmaceutical compound” (IOmet Pharma Ltd., priority 2014, dated 2020)

How the values were obtained:
[1] = target: T1, IDO (Homo sapiens, UniProt P14902); assay: hIDO biochemical coupled assay; details: 45 μM L-tryptophan, read-out: hIDO biochemical assay pIC50 (converted)
[2] = target: T1, IDO; assay: SKOV3 kynurenine cell-based assay (IDO induced by IFN-γ); parameters: IDO expression was induced in the SKOV3 cells by the addition of 500 ng/ml IFN-γ; endogenous in cells; host or cells: SKOV3 (human ovarian adenocarcinoma), induced with IFN-γ; details: 48 hours, read-out: SKOV3 Kynurenine cell based assay pIC50 (converted)
In short: (§1)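 A172 glioblastoma cells (TDO; 30,000/well) and SKOV3 ovarian cells (IDO induced with 500 ng/ml IFN-γ; 40,000/well) were grown in phenol red-free RPMI with 10% FCS, 2 mM L-glutamine and 500 μM L-tryptophan. They were incubated ±compound for 48 hours at 37 °C. Supernatant kynurenine was read with Ehrlich's reagent (5 min) at […] absorbance.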

[3] = target: T2, TDO (Homo sapiens, UniProt P48775); assay: A172 kynurenine cell-based assay; parameters: This assay utilised cancer cells which expressed either TDO or IDO; endogenous in cells; host or cells: A172 (human glioblastoma); details: A172 human glioblastoma cells, 48 hours, read-out: A172 Kynurenine cell based assay pIC50 (converted)
In short: as §1

[4] = target: T2, TDO; assay: hTDO biochemical coupled assay; details: 330 μM L-tryptophan, read-out: hTDO biochemical assay pIC50 (converted)
[5] = SKOV3 human ovarian adenocarcinoma cells, 500 ng/ml IFN-γ, 500 μM L-tryptophan

T1 sequence (P14902 whole entry): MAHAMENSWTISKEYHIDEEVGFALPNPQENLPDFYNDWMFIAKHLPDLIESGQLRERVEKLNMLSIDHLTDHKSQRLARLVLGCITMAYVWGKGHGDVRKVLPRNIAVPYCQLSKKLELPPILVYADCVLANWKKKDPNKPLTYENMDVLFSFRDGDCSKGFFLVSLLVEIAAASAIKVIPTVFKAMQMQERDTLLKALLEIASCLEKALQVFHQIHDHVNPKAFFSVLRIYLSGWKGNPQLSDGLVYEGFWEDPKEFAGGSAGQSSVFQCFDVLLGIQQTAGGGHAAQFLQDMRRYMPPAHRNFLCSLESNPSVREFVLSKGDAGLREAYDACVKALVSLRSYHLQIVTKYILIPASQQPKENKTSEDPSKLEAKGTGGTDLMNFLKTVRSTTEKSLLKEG
T2 sequence (P48775 whole entry): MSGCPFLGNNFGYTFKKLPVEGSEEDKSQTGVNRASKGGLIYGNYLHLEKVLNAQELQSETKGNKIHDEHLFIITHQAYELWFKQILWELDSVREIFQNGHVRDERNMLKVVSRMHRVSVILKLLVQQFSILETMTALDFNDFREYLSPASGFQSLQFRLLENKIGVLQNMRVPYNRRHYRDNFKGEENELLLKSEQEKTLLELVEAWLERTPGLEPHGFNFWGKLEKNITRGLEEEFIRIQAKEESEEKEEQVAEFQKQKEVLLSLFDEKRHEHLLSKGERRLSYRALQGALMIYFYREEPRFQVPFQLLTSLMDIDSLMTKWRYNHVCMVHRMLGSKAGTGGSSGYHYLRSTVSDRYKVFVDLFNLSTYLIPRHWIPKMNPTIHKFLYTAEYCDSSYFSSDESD

Compound	IC50 ([1]; 17 minutes, room temperature) [µM]	IC50 [2, 5] [µM]	IC50 ([3]; 500 μM L-tryptophan) [µM]	IC50 ([4]; 17 minutes, room temperature) [µM]	IC50 [1] [µM]	IC50 ([2]; SKOV3 cells, IDO induced by 500 ng/ml IFN-γ) [µM]	IC50 [3] [µM]	IC50 [4] [µM]
O=C1Nc2ccccc2NC12CCN(c1cc(Cl)cc3[nH]ncc13)CC2 [Compound 404]	32.4 to 100	< 3.16	3.24 to 31.6	< 3.16				
CS(=O)(=O)Nc1ccc2c(c1)CCN(c1cc(Cl)cc3[nH]ncc13)C2 [Compound 342]	> 100	3.24 to 31.6	< 3.16	< 3.16				
CC1(C)CN(c2cc(Cl)cc3[nH]ncc23)CCN1CCNS(C)(=O)=O [Compound 420]	3.24 to 31.6	> 100	< 3.16	< 3.16				
CC(=O)Nc1ccc2c(c1)CCN(c1cc(Cl)cc3[nH]ncc13)C2 [Compound 358]	> 100	3.24 to 31.6	< 3.16	< 3.16				
CS(=O)(=O)c1ccc(-c2cc(Cl)cc3[nH]ncc23)cc1 [Compound 192, 6-chloro-4-(4-(methylsulfonyl)phenyl)-1H-indazole]	3.24 to 31.6	3.24 to 31.6	< 3.16	< 3.16	15.5	5.62	0.0245	0.129
CS(=O)(=O)N1CCN(C2CCN(c3cc(Cl)cc4[nH]ncc34)CC2)CC1 [Compound 453]	3.24 to 31.6	> 100	< 3.16	< 3.16				
Nc1ccnn1C1CCN(c2cc(Cl)cc3[nH]ncc23)CC1 [Compound 430]	< 3.16	> 100	3.24 to 31.6	< 3.16				
O=C1NC(=O)C2(CCN(c3cc(Cl)cc4[nH]ncc34)CC2)N1 [Compound 137]	< 3.16	< 3.16	< 3.16	< 3.16				
c1ccc(CNc2cccc3[nH]ncc23)cc1 [Compound 34]	> 100	32.4 to 100	32.4 to 100	3.24 to 31.6				
O=C1NC2(CCN(c3cc(Cl)cc4[nH]ncc34)CC2)C(=O)N1CC1CC1 [Compound 390]	< 3.16	< 3.16	< 3.16	< 3.16				
Cc1nc2c(n1C)CCN(c1cc(Cl)cc3[nH]ncc13)C2 [Compound 252]	> 100	32.4 to 100	< 3.16	< 3.16				
CNC(=O)C1CCCN(c2cc(Cl)cc3[nH]ncc23)C1 (stereo not drawn) [Compound 210]	> 100	32.4 to 100	3.24 to 31.6	3.24 to 31.6				
OC1(c2cc(Cl)cc3[nH]ncc23)CCCC1 [Compound 320]	3.24 to 31.6	3.24 to 31.6	< 3.16	< 3.16				
Cc1nc2c(n1C)CN(c1cc(Cl)cc3[nH]ncc13)CC2 [Compound 356]	> 100	3.24 to 31.6	3.24 to 31.6	3.24 to 31.6				
CN1CNC(=O)C12CCN(c1cc(Cl)cc3[nH]ncc13)CC2 [Compound 380]	> 100	3.24 to 31.6	3.24 to 31.6	3.24 to 31.6				
CC(=O)NC1CCN(c2cc(Cl)cc3[nH]ncc23)CC1(C)C (stereo not drawn) [Compound 335]	3.24 to 31.6	3.24 to 31.6	< 3.16	< 3.16				
CC(=O)N(C)CC1CCN(c2cc(Cl)cc3[nH]ncc23)CC1 [Compound 282]	32.4 to 100	3.24 to 31.6	< 3.16	< 3.16				
O=C1NC2(CCN(c3cc(Cl)cc4[nH]ncc34)CC2)C(=O)N1Cc1ccccc1 [Compound 331]	< 3.16	< 3.16	< 3.16	< 3.16				

Compound	IC50 ([1]; 17 minutes, room temperature) [µM]	IC50 [2, 5] [µM]	IC50 ([3]; 500 μM L-tryptophan) [µM]	IC50 ([4]; 17 minutes, room temperature) [µM]	IC50 [1] [µM]	IC50 ([2]; SKOV3 cells, IDO induced by 500 ng/ml IFN-γ) [µM]	IC50 [3] [µM]	IC50 [4] [µM]
CNS(=O)(=O)c1ccc(-c2cc(Cl)cc3[nH]ncc23)cc1 [Compound 300]	32.4 to 100	3.24 to 31.6	< 3.16	< 3.16				
CN1C(=O)[C@@H]2CC[C@H]1CN(c1cc(Br)cc3[nH]ncc13)C2 [Compound 455]	3.24 to 31.6	> 100	< 3.16	< 3.16				
OC(c1cc(Cl)cc2[nH]ncc12)C1CCOCC1 (stereo not drawn) [Compound 299]	> 100	> 100	< 3.16	< 3.16				
CC(=O)N(C)c1cc(N2CCN(S(C)(=O)=O)C(C)(C)C2)c2cn[nH]c2c1 [Compound 311]	> 100	3.24 to 31.6	3.24 to 31.6	32.4 to 100				
CS(=O)(=O)c1ccc(-c2cc(Cl)cc3[nH]ncc23)cc1F [Compound 265]	3.24 to 31.6	3.24 to 31.6	< 3.16	< 3.16				
Clc1cc(N2CCC(n3cccn3)CC2)c2cn[nH]c2c1 [Compound 339]	< 3.16	3.24 to 31.6	< 3.16	< 3.16				
Cn1ccnc1N1CCN(c2cc(Cl)cc3[nH]ncc23)CC1 [Compound 436]	> 100	> 100	< 3.16	< 3.16				
CS(=O)(=O)NCC1CCCN(c2cc(Cl)cc3[nH]ncc23)C1 (stereo not drawn) [Compound 284]	> 100	32.4 to 100	3.24 to 31.6	< 3.16				
Clc1cc(N2CCN(c3ncccn3)CC2)c2cn[nH]c2c1 [Compound 309]	> 100	> 100	< 3.16	3.24 to 31.6				
c1ccc(Nc2cccc3[nH]ncc23)cc1 [Compound 36]	> 100	> 100	3.24 to 31.6	< 3.16				
CS(=O)(=O)N1CCN(c2cc(Cl)cc3[nH]ncc23)C2CCCCC21 (single isomer, unassigned) [Compound 385]	> 100	32.4 to 100	32.4 to 100	> 100				
CC1(C)CN(c2cc(Cl)cc3c(N)n[nH]c23)CCN1S(C)(=O)=O [Compound 321]	> 100	3.24 to 31.6	3.24 to 31.6	> 100				
CN(C1CCN(c2cc(Cl)cc3[nH]ncc23)CC1(C)C)S(C)(=O)=O (stereo not drawn) [Compound 449]	3.24 to 31.6	3.24 to 31.6	< 3.16	< 3.16				
CC1(C)CN(c2cc(Br)cc3[nH]ncc23)CCN1S(C)(=O)=O [Compound 91]	< 3.16	< 3.16	< 3.16	< 3.16				
CS(=O)(=O)N1CCN(c2cc(Cl)cc3c(N)noc23)CC1 [Compound 302]	> 100	3.24 to 31.6	3.24 to 31.6	> 100				
CC1(C)CN(c2cc(C#N)cc3[nH]ncc23)CCN1S(C)(=O)=O [Compound 334]	< 3.16	3.24 to 31.6	< 3.16	< 3.16				
CS(=O)(=O)N1C2CCC1CN(c1cc(Cl)cc3[nH]ncc13)C2 [Compound 232]	3.24 to 31.6	3.24 to 31.6	< 3.16	< 3.16				
